Each block holds one compound with its values, some of them ahead of it. Active and inactive are the calls of the source.
How the values were obtained:
Cannabinoid receptor 1 [1] = biological target: T1, Cannabinoid receptor 1 (Homo sapiens, UniProt P21554); experiment: SAR analysis of agonists of the Cannabinoid Receptor 1 using an Image-Based Assay - Set 4. [Related pubchem assays (depositor defined):AID2013, AID2026]; assay type: functional
Cannabinoid receptor 1 [2] = biological target: T1, Cannabinoid receptor 1; experiment: SAR analysis of antagonists of the Cannabinoid Receptor 1 using an Image-Based Assay - Set 4. [Related pubchem assays (depositor defined):AID2013, AID2026]; assay type: functional
Cannabinoid receptor 2 [3] = biological target: T2, Cannabinoid receptor 2 (Homo sapiens, UniProt P34972); experiment: SAR analysis of antagonists of the Cannabinoid Receptor 2 using an Image-Based Assay - Set 3. [Related pubchem assays (depositor defined):AID2013, AID2026]; assay type: functional
T2 sequence (P34972 whole entry): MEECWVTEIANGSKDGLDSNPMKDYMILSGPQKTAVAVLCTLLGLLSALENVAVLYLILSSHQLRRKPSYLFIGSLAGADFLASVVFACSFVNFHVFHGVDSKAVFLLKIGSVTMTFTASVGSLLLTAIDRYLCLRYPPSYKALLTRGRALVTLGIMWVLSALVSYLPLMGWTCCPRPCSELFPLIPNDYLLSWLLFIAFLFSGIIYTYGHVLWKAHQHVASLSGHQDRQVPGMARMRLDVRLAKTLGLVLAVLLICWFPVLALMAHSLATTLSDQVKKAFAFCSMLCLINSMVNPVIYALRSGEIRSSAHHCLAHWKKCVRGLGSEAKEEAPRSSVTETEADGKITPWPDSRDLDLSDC

[4] = biological target: T3, G-protein coupled receptor 35 (Homo sapiens, UniProt Q9HC97); experiment: SAR analysis of Antagonists of the GPR35 Receptor using an Image-Based Assay - Set 6. [Related pubchem assays (depositor defined):AID2013, AID2026]; assay type: functional
T3 sequence (Q9HC97 whole entry): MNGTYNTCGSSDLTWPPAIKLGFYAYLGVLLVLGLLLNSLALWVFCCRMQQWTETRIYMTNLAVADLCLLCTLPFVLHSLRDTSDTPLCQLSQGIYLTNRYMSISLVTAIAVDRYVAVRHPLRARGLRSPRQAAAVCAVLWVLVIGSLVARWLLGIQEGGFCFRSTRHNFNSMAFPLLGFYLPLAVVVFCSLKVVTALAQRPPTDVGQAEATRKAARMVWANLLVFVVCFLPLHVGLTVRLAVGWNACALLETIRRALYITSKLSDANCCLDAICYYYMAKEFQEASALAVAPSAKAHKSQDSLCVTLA

[5] = biological target: T3, G-protein coupled receptor 35; experiment: SAR analysis of Agonists of the GPR35 Receptor using an Image-Based Assay - Set 4. [Related pubchem assays (depositor defined):AID2013, AID2026]; assay type: functional
[6] = biological target: G-protein coupled receptor 55 (Homo sapiens, UniProt Q9Y2T6); experiment: SAR Analysis of Selective Antagonists of GPR55 using an Image-Based Assay - Set 4. [Related pubchem assays (depositor defined):AID2013, AID2026]; assay type: functional;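 note: antagonism of response to 5 µM lysophosphatidylinositol agonist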
G-protein coupled receptor 55, sequence (Q9Y2T6 whole entry): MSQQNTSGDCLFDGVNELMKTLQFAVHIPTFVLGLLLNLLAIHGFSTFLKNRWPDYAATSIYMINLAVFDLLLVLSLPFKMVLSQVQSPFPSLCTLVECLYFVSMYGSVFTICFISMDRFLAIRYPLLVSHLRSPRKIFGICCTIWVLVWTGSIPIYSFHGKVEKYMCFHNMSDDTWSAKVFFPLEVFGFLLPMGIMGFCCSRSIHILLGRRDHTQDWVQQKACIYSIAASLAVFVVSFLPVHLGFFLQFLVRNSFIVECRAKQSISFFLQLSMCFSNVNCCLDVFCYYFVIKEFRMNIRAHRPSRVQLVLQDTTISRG

Cannabinoid receptor 2 [7] = biological target: T2, Cannabinoid receptor 2; experiment: SAR analysis of agonists of the Cannabinoid Receptor 2 using an Image-Based Assay - Set 3. [Related pubchem assays (depositor defined):AID2013, AID2026]; assay type: functional
[8] = biological target: T4, Delta-type opioid receptor (Homo sapiens, UniProt P41143); experiment: HTS Image-Based Screen for Antagonists of the DOR Receptor. [Related pubchem assays (depositor defined):AID1777, AID1785, AID1786, AID2133]; assay type: functional
T4 sequence (P41143 whole entry): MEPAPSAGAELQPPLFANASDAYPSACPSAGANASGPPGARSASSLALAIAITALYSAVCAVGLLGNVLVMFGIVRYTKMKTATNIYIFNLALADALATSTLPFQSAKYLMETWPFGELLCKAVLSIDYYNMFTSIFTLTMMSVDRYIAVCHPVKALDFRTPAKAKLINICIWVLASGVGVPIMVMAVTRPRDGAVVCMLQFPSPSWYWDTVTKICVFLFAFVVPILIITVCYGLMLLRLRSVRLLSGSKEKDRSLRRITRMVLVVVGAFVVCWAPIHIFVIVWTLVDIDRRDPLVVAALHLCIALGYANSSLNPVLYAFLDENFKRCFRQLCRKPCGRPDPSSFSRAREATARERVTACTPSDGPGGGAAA

[9] = biological target: T5, Kappa-type opioid receptor (Homo sapiens, UniProt P41145); assay type: functional
T5 sequence (P41145 whole entry): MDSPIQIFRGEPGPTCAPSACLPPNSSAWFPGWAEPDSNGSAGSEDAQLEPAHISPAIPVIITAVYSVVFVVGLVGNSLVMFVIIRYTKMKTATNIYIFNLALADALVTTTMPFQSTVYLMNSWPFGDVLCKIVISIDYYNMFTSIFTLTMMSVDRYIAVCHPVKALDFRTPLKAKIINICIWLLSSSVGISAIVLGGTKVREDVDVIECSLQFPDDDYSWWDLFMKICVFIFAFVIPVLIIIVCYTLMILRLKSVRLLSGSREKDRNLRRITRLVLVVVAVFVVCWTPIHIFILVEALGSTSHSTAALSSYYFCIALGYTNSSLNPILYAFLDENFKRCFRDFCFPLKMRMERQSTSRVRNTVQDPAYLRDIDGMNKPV

[10] = biological target: T4, Delta-type opioid receptor; experiment: HTS Image-Based Screen for Agonists of the DOR Receptor. [Related pubchem assays (depositor defined):AID1777, AID1786, AID2133]; assay type: functional
[11] = biological target: T5, Kappa-type opioid receptor; assay type: functional; remark: listed apart in the source
Mu-type opioid receptor [12] = biological target: T6, Mu-type opioid receptor (Homo sapiens, UniProt P35372); experiment: HTS Image-Based Screen for Agonists of the MOR Receptor. [Related pubchem assays (depositor defined):AID1777, AID1785, AID1786, AID2133]; assay type: functional
T6 sequence (P35372 whole entry): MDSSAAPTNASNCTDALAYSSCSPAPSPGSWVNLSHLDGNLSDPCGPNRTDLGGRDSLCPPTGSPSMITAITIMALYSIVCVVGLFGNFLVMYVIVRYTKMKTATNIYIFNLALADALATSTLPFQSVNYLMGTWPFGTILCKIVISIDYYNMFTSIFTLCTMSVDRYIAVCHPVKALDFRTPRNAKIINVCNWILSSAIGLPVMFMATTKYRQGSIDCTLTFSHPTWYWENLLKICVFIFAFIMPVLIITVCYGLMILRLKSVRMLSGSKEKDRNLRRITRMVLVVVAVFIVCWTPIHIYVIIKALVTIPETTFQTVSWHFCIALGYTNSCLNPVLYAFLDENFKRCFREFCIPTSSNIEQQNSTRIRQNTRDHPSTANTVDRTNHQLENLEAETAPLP

[13] = biological target: T4, Delta-type opioid receptor; experiment: delta opioid receptor blockers – image-based, SAR follow-up (AID 2357); assay type: functional
[14] = biological target: Melanin-concentrating hormone receptor 1 (Homo sapiens, UniProt Q99705); experiment: Fluorescence-based counterscreen for antagonists of the G-protein coupled receptor 7 (GPR7): cell-based high throughput dose response assay to identify antagonists of the melanin-concentrating hormone receptor 1 (MCHR1).; assay type: functional
Melanin-concentrating hormone receptor 1, sequence (Q99705 whole entry): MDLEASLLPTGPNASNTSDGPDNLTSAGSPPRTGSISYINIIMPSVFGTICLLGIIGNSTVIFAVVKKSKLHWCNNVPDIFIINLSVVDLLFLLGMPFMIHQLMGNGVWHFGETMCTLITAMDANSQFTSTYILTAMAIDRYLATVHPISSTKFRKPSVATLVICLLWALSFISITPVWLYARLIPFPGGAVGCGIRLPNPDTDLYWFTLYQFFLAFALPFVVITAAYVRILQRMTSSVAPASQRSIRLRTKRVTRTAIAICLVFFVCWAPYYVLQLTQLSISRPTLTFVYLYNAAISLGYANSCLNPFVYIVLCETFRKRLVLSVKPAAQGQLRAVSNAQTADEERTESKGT

[15] = biological target: T5, Kappa-type opioid receptor; experiment: kappa opioid receptor activation potency – imaging, image-based, SAR follow-up (AID 2359); assay type: functional
[16] = biological target: T5, Kappa-type opioid receptor; experiment: SAR analysis of small molecule agonists of the kappa opioid receptor via a luminescent beta-arrestin assay. [Related pubchem assays (depositor defined):AID1777, AID1786, AID1966, AID2133, AID2136, AID2348, AID2352, AID2357, AID2359, AID2370, AID2420, AID2478, AID2491, AID2492, AID2493, AID2497, AID2498, AID2500, AID449737, AID488822, AID488842]; assay type: functional
[17] = biological target: T4, Delta-type opioid receptor; experiment: DOR agonists, SAR follow-up, image-based (AID 2370); assay type: functional
Mu-type opioid receptor [18] = biological target: T6, Mu-type opioid receptor; experiment: mu opioid receptor blockers – image-based, SAR follow-up (AID 2420); assay type: functional;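 note: compounds added before stimulation of receptor with agonist DAMGO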
[19] = biological target: T5, Kappa-type opioid receptor; experiment: kappa opioid receptor blockers, image-based, SAR follow-up (AID 2348); assay type: functional
Mu-type opioid receptor [20] = biological target: T6, Mu-type opioid receptor; experiment: mu opioid receptor activators, image-based, SAR follow-up (AID 2352); assay type: functional
[21] = biological target: T7, Neuropeptides B/W receptor type 1 (Homo sapiens, UniProt P48145); experiment: Fluorescence-based dose response cell-based high throughput screening assay to identify antagonists of the G-protein coupled receptor 7 (GPR7). [Related pubchem assays: 1952 (Screening assay (GPR7 antagonists).), 1880 (Summary AID.)]; assay type: functional
T7 sequence (P48145 whole entry): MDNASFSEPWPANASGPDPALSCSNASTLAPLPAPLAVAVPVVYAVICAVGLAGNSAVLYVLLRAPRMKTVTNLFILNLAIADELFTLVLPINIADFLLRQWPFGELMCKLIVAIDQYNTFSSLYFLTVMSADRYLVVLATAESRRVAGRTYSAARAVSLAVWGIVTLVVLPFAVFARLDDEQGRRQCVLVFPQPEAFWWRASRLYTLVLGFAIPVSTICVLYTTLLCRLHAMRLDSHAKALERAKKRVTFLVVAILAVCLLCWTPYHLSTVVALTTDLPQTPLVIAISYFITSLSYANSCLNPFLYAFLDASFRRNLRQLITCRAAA

[22] = biological target: T8, Tyrosine-protein phosphatase non-receptor type 22 (Homo sapiens, UniProt Q9Y2R2); experiment: SAR LYP1 Fluorescent Assay using OMFP substrate for In Vitro dose response studies - Set 2. [Related pubchem assays (depositor defined):AID1779, AID1784, AID2140, AID449726, AID488869]; assay type: functional
T8 sequence (Q9Y2R2 whole entry): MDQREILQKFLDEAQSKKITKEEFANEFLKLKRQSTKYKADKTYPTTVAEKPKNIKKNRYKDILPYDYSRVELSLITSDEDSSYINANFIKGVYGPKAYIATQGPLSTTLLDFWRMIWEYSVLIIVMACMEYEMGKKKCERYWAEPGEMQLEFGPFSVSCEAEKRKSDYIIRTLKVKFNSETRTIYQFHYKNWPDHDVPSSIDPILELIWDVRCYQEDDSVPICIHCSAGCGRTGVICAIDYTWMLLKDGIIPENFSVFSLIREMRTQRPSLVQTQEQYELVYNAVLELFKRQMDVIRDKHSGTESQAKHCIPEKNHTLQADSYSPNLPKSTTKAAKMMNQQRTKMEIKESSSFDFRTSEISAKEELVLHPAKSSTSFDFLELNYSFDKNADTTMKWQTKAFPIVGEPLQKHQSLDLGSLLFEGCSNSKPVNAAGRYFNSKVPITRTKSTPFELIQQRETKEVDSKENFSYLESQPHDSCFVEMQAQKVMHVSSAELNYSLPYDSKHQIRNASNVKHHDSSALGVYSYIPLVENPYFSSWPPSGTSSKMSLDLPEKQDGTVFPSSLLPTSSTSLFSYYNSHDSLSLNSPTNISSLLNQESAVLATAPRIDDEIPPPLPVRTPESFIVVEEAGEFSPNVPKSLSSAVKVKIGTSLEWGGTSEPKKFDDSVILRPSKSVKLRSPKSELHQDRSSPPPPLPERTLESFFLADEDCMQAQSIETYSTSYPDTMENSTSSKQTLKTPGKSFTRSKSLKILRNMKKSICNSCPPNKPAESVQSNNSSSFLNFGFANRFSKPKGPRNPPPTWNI

[23] = biological target: T9, Tyrosine-protein phosphatase non-receptor type 7 (Homo sapiens, UniProt P35236); experiment: inhibition of hematopoietic tyrosine phosphatase HePTP – biochemical, set 2, SAR follow-up (AID 449736); assay type: functional
T9 sequence (P35236 whole entry): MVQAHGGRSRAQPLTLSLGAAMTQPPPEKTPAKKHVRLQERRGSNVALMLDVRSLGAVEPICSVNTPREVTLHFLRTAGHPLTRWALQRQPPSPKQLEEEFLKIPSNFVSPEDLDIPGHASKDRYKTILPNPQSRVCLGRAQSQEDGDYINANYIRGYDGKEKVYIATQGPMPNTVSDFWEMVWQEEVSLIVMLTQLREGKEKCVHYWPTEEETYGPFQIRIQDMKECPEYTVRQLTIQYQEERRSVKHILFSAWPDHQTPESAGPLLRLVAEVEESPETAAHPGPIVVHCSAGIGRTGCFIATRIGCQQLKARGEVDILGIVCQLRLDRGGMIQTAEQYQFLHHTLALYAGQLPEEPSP

[24] = biological target: T8, Tyrosine-protein phosphatase non-receptor type 22; experiment: SAR LYP1 Fluorescent Assay using OMFP substrate for In Vitro dose response studies - Set 3. [Related pubchem assays (depositor defined):AID1779, AID1784, AID2140, AID2686]; assay type: functional
[25] = biological target: T8, Tyrosine-protein phosphatase non-receptor type 22; experiment: PubChem AID 2140
[26] = biological target: T8, Tyrosine-protein phosphatase non-receptor type 22; experiment: SAR LYP1 Fluorescent Assay using pCAP substrate for In Vitro dose response studies - Set 2. [Related pubchem assays (depositor defined):AID1779, AID1784, AID2135, AID449727]; assay type: functional
[27] = biological target: Tyrosine-protein phosphatase non-receptor type 12 (Homo sapiens, UniProt Q05209); experiment: SAR Selectivity Analysis of small molecule inhibitors of PEST using pCAP in a fluorescence assay. [Related pubchem assays (depositor defined):AID1779, AID1784, AID2135]; assay type: functional
Tyrosine-protein phosphatase non-receptor type 12, sequence (Q05209 whole entry): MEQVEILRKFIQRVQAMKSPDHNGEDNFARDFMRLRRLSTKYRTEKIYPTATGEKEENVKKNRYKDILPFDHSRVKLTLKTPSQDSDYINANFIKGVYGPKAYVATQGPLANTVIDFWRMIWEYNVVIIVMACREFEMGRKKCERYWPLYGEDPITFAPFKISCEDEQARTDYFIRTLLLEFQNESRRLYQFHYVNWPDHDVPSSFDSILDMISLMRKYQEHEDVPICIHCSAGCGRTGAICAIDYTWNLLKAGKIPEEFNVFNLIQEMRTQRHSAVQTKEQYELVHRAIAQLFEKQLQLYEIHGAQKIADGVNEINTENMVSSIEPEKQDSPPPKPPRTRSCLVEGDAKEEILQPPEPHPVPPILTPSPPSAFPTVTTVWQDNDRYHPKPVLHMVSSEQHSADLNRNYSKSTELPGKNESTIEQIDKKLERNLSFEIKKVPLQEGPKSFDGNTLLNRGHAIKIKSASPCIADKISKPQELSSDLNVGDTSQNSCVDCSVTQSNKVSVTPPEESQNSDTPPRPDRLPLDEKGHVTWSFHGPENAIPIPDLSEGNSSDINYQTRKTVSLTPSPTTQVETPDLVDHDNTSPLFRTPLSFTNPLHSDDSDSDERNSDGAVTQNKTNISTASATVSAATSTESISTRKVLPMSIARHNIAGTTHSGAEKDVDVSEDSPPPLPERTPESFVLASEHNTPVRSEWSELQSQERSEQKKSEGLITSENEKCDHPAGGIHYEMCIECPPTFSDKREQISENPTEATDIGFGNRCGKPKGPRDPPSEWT

[28] = biological target: T8, Tyrosine-protein phosphatase non-receptor type 22; experiment: PubChem AID 2135
[29] = biological target: T8, Tyrosine-protein phosphatase non-receptor type 22; experiment: inhibition of lymphoid tyrosine phosphatase LYP – biochemical, pCAP fluorogenic substrate, fluorescence, set 3, SAR follow-up (AID 449727); assay type: functional
[30] = biological target: T10, Runt-related transcription factor 1/Core-binding factor subunit beta (Homo sapiens, UniProt Q01196+Q13951); experiment: disruptors of Runt domain/CBFb-SMMHC interaction – biochemical, FRET, Cerulean-Runt, Venus-CBFb-SMMHC, uHTS, […] (AID 1434); assay type: protein assay
T10 sequence (Q01196 whole entry, the tested form may be a part): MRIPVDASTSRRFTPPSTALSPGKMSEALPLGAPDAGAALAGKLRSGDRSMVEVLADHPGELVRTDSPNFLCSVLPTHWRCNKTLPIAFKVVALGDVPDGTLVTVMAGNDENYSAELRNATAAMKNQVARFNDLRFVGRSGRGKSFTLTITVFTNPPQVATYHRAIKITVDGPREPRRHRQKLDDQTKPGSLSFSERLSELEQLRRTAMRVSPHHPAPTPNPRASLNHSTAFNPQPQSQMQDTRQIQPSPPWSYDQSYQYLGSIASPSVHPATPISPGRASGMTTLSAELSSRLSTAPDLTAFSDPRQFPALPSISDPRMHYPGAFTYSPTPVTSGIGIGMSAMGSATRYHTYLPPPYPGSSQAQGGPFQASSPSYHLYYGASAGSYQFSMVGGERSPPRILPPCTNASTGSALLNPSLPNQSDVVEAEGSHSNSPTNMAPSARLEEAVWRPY
T10 sequence (Q13951 whole entry, the tested form may be a part): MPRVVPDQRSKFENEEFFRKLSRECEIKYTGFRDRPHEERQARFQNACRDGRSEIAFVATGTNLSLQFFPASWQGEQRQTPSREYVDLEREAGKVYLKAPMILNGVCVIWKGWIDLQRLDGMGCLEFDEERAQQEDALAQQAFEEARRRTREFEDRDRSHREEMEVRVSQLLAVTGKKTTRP

[31] = biological target: T10, Runt-related transcription factor 1/Core-binding factor subunit beta; experiment: Runt domain/CBFb-SMMHC interaction disruptors – biochemical, TR-FRET (AID 1438); assay type: protein assay

T1 sequence (P21554 whole entry): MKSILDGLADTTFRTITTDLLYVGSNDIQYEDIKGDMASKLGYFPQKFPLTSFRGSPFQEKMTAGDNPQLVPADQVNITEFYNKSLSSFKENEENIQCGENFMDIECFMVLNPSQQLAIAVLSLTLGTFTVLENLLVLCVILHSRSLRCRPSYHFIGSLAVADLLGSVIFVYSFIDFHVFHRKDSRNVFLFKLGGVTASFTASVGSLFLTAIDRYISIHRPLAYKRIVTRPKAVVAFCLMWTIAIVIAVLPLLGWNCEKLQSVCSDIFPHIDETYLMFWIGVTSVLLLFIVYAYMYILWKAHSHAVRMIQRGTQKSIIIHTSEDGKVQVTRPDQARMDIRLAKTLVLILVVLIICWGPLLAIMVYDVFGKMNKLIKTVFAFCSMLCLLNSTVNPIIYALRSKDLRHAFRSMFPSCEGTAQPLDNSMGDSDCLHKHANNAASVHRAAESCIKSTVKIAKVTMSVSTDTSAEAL

SMILES: O=C(c1cnccn1)N(Cc1ccco1)C1(C(=O)NC2CCCC2)CCCCC1
IC50 [13]: > 32 µM (inactive)
IC50 [14]: > 43.8 µM (not active)
EC50 [15]: > 32 µM (inactive)
EC50 [16]: > 10 µM (inactive)
EC50 [17]: > 32 µM (inactive)
IC50 (Mu-type opioid receptor [18]): > 32 µM (inactive)
IC50 [19]: > 32 µM (inactive)
EC50 (Mu-type opioid receptor [20]): > 32 µM (inactive)
IC50 [21]: > 43.8 µM (not active)

SMILES: N#C/C(=C/c1ccc(OCc2ccc(C(=O)O)cc2)cc1)c1cccc(F)c1
IC50 [22]: 65.5 µM (active)
IC50 [23]: 3.65 µM (active)
IC50 [24]: 82.9 µM (active)
IC50 [25]: > 100 µM (inactive)
IC50 [26]: 86.7 µM (active)
IC50 [27]: 21 µM (active)
IC50 [28]: > 100 µM (inactive)
IC50 [29]: > 100 µM (inactive)

Continued, values first:

EC50 (Cannabinoid receptor 1 [1]): > 32 µM (inactive)
IC50 (Cannabinoid receptor 1 [2]): > 32 µM (inactive)
IC50 (Cannabinoid receptor 2 [3]): > 32 µM (inactive)
IC50 [4]: > 32 µM (inactive)
EC50 [5]: > 32 µM (inactive)
IC50 [6]: 29.7 µM (inactive)
EC50 (Cannabinoid receptor 2 [7]): 3.01 µM (active)
SMILES: CCNC(=O)c1cc2c(=O)n3ccccc3nc2n(C2CCCC2)c1=N

IC50 [8]: > 32 µM (inactive)
EC50 [9]: > 35 µM
EC50 [10]: > 32 µM (inactive)
EC50 [11]: 3.55 µM
EC50 (Mu-type opioid receptor [12]): > 32 µM (inactive)
SMILES: O=C(c1ccc([N+](=O)[O-])cc1)N(Cc1ccc(Br)cc1)N1C(=O)CCCC1=O

IC50 [30]: > 100 µM (inactive)
IC50 [31]: > 100 µM (inactive)
SMILES: CC(C)C(=O)N(c1cc2sc(=O)oc2c2ccccc12)S(=O)(=O)c1cccs1

Source: ChEMBL document CHEMBL1201862, “PubChem BioAssay data set” (2004)
